Where “and” joins values, the source holds several entries; their conditions need not be identical. Identical values can stand only once.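 A five-concentration, 48-hour dose response in 96-well plates underlies each endpoint, interpolated linearly between surrounding concentrations. The concentration for 50% growth inhibition is given as GI50. TGI is the concentration that stops growth completely.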
What was measured:
Test in all cases: NCI tumour cell line growth inhibition, 48 h
OVCAR-5 ovarian = test system: OVCAR-5 ovarian
OVCAR-3 ovarian = test system: OVCAR-3 ovarian
T-47D breast = test system: T-47D breast
SK-MEL-5 melanoma = test system: SK-MEL-5 melanoma
MDA-MB-231 breast = test system: MDA-MB-231 breast
786-0 renal = test system: 786-0 renal
IGROV1 ovarian = test system: IGROV1 ovarian
MOLT-4 leukemia = test system: MOLT-4 leukemia
SNB-78 CNS = test system: SNB-78 CNS
CCRF-CEM leukemia = test system: CCRF-CEM leukemia
NCI-H460 lung = test system: NCI-H460 lung
UACC-257 melanoma = test system: UACC-257 melanoma
SR leukemia = test system: SR leukemia
U251 CNS = test system: U251 CNS
XF 498 CNS = test system: XF 498 CNS
CAKI-1 renal = test system: CAKI-1 renal
COLO 205 colon = test system: COLO 205 colon
HCT-116 colon = test system: HCT-116 colon
HCC-2998 colon = test system: HCC-2998 colon
NCI/ADR-RES ovarian = test system: NCI/ADR-RES ovarian
HOP-62 NSCLC = test system: HOP-62 NSCLC
SN12C renal = test system: SN12C renal
SK-MEL-28 melanoma = test system: SK-MEL-28 melanoma
OVCAR-4 ovarian = test system: OVCAR-4 ovarian
BT-549 breast = test system: BT-549 breast
MALME-3M melanoma = test system: MALME-3M melanoma
A549 NSCLC = test system: A549 NSCLC
K-562 leukemia = test system: K-562 leukemia
HL-60(TB) leukemia = test system: HL-60(TB) leukemia
SK-OV-3 ovarian = test system: SK-OV-3 ovarian
ACHN renal = test system: ACHN renal
SF-295 CNS = test system: SF-295 CNS
LXFL 529 NSCLC = test system: LXFL 529 NSCLC
UO-31 renal = test system: UO-31 renal

CCOC(=O)Nc1ccc2c(c1)N(C(=O)CCN(CC)CC)c1ccccc1S2
TGI (OVCAR-5 ovarian): 99.9 µM and 178 µM | GI50 (OVCAR-3 ovarian): 42.3 µM | TGI (OVCAR-3 ovarian): > 78.9 µM and 107 µM | TGI (T-47D breast): 87.9 µM | GI50 (SK-MEL-5 melanoma): 36.1 µM | TGI (SK-MEL-5 melanoma): 34.3 µM and 100 µM | TGI (MDA-MB-231 breast): 95.1 µM | TGI (786-0 renal): 69.8 µM | GI50 (IGROV1 ovarian): 64 µM | TGI (IGROV1 ovarian): > 94.1 µM and 138 µM | GI50 (MOLT-4 leukemia): 13.7 µM | TGI (MOLT-4 leukemia): 71.1 µM and 44.3 µM | GI50 (SNB-78 CNS): 41 µM | GI50 (CCRF-CEM leukemia): 17 µM | TGI (CCRF-CEM leukemia): > 91.2 µM and 66.9 µM | TGI (NCI-H460 lung): 57.1 µM | GI50 (UACC-257 melanoma): 12.4 µM | TGI (UACC-257 melanoma): 32.3 µM and 35.4 µM | TGI (SR leukemia): 43.4 µM | GI50 (U251 CNS): 39.8 µM | TGI (U251 CNS): > 72.1 µM and 108 µM | GI50 (XF 498 CNS): 0.626 µM | TGI (XF 498 CNS): 33.4 µM and 10 µM | GI50 (CAKI-1 renal): 11.4 µM | TGI (CAKI-1 renal): 30.6 µM | GI50 (COLO 205 colon): 47 µM | TGI (COLO 205 colon): 47.7 µM and 120 µM | GI50 (HCT-116 colon): 12.5 µM | TGI (HCT-116 colon): > 31.6 µM and 39.9 µM | TGI (HCC-2998 colon): 32.8 µM and 75.7 µM | TGI (NCI/ADR-RES ovarian): 86.8 µM | GI50 (HOP-62 NSCLC): 44.2 µM | TGI (HOP-62 NSCLC): 134 µM | GI50 (SN12C renal): 24.3 µM | TGI (SN12C renal): > 76.8 µM and 85.3 µM | GI50 (SK-MEL-28 melanoma): 60.3 µM | TGI (SK-MEL-28 melanoma): 57.1 µM and 126 µM | GI50 (OVCAR-4 ovarian): 84 µM | TGI (OVCAR-4 ovarian): 234 µM | TGI (BT-549 breast): 97.2 µM | GI50 (MALME-3M melanoma): 29.1 µM | TGI (MALME-3M melanoma): 34.4 µM and 70.3 µM | GI50 (A549 NSCLC): 58.3 µM | TGI (A549 NSCLC): 125 µM | GI50 (K-562 leukemia): 19.7 µM | TGI (K-562 leukemia): > 81.8 µM | GI50 (HL-60(TB) leukemia): 16.1 µM | TGI (HL-60(TB) leukemia): 45.9 µM and 57.7 µM | GI50 (SK-OV-3 ovarian): 106 µM | TGI (SK-OV-3 ovarian): 70.7 µM and 183 µM | TGI (ACHN renal): > 95.5 µM | TGI (SF-295 CNS): 54.4 µM | TGI (LXFL 529 NSCLC): 42.5 µM | TGI (UO-31 renal): > 89.5 µM
